Assay results: publication PMC12281475, “Mediator Kinase Inhibitor Selectivity and Activity in Colorectal Cancer” (ACS Chemical Biology, 2025)

Tests used:
CDK6_CycD1 = biological target: T1, CDK6_CycD1 (Homo sapiens, UniProt Q00534); assay: Radiometric protein kinase assay (33PanQinase), CDK6_CycD1; assay type: biochemical; conditions: slope of the IC50 fit
T1 construct: purchased Reaction Biology

CDK1_CycE1 = biological target: T2, CDK1_CycE1 (Homo sapiens, UniProt P06493); assay: Radiometric protein kinase assay (33PanQinase), CDK1_CycE1; assay type: biochemical
T2 construct: purchased Reaction Biology

CDK8_CycC = biological target: T3, CDK8_CycC (Homo sapiens, UniProt P49336); assay: Radiometric protein kinase assay (33PanQinase), CDK8_CycC; assay type: biochemical; conditions: slope of the IC50 fit
T3 construct: purchased Reaction Biology

CDK12_CycK = biological target: T4, CDK12_CycK (Homo sapiens, UniProt Q9NYV4); assay: Radiometric protein kinase assay (33PanQinase), CDK12_CycK; assay type: biochemical
T4 construct: purchased Reaction Biology

CDK16_CycY = biological target: T5, CDK16_CycY (Homo sapiens, UniProt Q00536); assay: Radiometric protein kinase assay (33PanQinase), CDK16_CycY; assay type: biochemical
T5 construct: purchased Reaction Biology

CDK3_CycC = biological target: T6, CDK3_CycC (Homo sapiens, UniProt Q00526); assay: Radiometric protein kinase assay (33PanQinase), CDK3_CycC; assay type: biochemical
T6 construct: purchased Reaction Biology

CDK18_CycY = CDK18_CycY (Homo sapiens, UniProt Q07002); assay: Radiometric protein kinase assay (33PanQinase), CDK18_CycY; assay type: biochemical
CDK9_CycK = biological target: T7, CDK9_CycK (Homo sapiens, UniProt P50750); assay: Radiometric protein kinase assay (33PanQinase), CDK9_CycK; assay type: biochemical
T7 construct: purchased Reaction Biology

CDK8 = test system: CDK8; design: method as in numbers not given; conditions: reporter displacement assay; previously characterized compounds, no method in this paper; ref numbers not given; read-out: IC50 for in vitro CDK8 binding; cited from earlier work
CDK3_CycE1 = biological target: T8, CDK3_CycE1 (Homo sapiens, UniProt Q00526); assay: Radiometric protein kinase assay (33PanQinase), CDK3_CycE1; assay type: biochemical; conditions: slope of the IC50 fit
T8 construct: purchased Reaction Biology

CDK13_CycK = biological target: T9, CDK13_CycK (Homo sapiens, UniProt Q14004); assay: Radiometric protein kinase assay (33PanQinase), CDK13_CycK; assay type: biochemical; conditions: slope of the IC50 fit
T9 construct: purchased Reaction Biology

CDK4_CycD3 = biological target: T10, CDK4_CycD3 (Homo sapiens, UniProt P11802); assay: Radiometric protein kinase assay (33PanQinase), CDK4_CycD3; assay type: biochemical
T10 construct: purchased Reaction Biology

CDK1_CycB1 = biological target: T11, CDK1_CycB1 (Homo sapiens, UniProt P06493); assay: Radiometric protein kinase assay (33PanQinase), CDK1_CycB1; assay type: biochemical
T11 construct: purchased Reaction Biology

CDK15_CycA2 = biological target: T12, CDK15_CycA2 (Homo sapiens, UniProt Q96Q40); assay: Radiometric protein kinase assay (33PanQinase), CDK15_CycA2; assay type: biochemical
T12 construct: purchased Reaction Biology

CDK20_CycH = CDK20_CycH (Homo sapiens, UniProt Q8IZL9); assay: Radiometric protein kinase assay (33PanQinase), CDK20_CycH; assay type: biochemical
CDK2_CycD1 = biological target: T13, CDK2_CycD1 (Homo sapiens, UniProt P24941); assay: Radiometric protein kinase assay (33PanQinase), CDK2_CycD1; assay type: biochemical; conditions: slope of the IC50 fit
T13 construct: purchased Reaction Biology

CDK19_CycC = biological target: T14, CDK19_CycC (Homo sapiens, UniProt Q9BWU1); assay: Radiometric protein kinase assay (33PanQinase), CDK19_CycC; assay type: biochemical
T14 construct: purchased Reaction Biology

CDK6_CycD2 = biological target: T15, CDK6_CycD2 (Homo sapiens, UniProt Q00534); assay: Radiometric protein kinase assay (33PanQinase), CDK6_CycD2; assay type: biochemical
T15 construct: purchased Reaction Biology

CDK11B 357-795_CycK = CDK11B 357-795_CycK (Homo sapiens, UniProt P21127); assay: Radiometric protein kinase assay (33PanQinase), CDK11B 357-795_CycK; assay type: biochemical
CDK9_CycT1 = biological target: T16, CDK9_CycT1 (Homo sapiens, UniProt P50750); assay: Radiometric protein kinase assay (33PanQinase), CDK9_CycT1; assay type: biochemical
T16 construct: purchased Reaction Biology

CDK20_CycT1 = CDK20_CycT1 (Homo sapiens, UniProt Q8IZL9); assay: Radiometric protein kinase assay (33PanQinase), CDK20_CycT1; assay type: biochemical
CDK14_CycY = CDK14_CycY (Homo sapiens, UniProt O94921); assay: Radiometric protein kinase assay (33PanQinase), CDK14_CycY; assay type: biochemical
CDK5_p35NCK = biological target: T17, CDK5_p35NCK (Homo sapiens, UniProt Q00535); assay: Radiometric protein kinase assay (33PanQinase), CDK5_p35NCK; assay type: biochemical
T17 construct: purchased Reaction Biology

CDK2_CycE1 = biological target: T18, CDK2_CycE1 (Homo sapiens, UniProt P24941); assay: Radiometric protein kinase assay (33PanQinase), CDK2_CycE1; assay type: biochemical
T18 construct: purchased Reaction Biology

CDK6_CycD3 = biological target: T19, CDK6_CycD3 (Homo sapiens, UniProt Q00534); assay: Radiometric protein kinase assay (33PanQinase), CDK6_CycD3; assay type: biochemical
T19 construct: purchased Reaction Biology

CDK4_CycD2 = biological target: T20, CDK4_CycD2 (Homo sapiens, UniProt P11802); assay: Radiometric protein kinase assay (33PanQinase), CDK4_CycD2; assay type: biochemical
T20 construct: purchased Reaction Biology

CDK1_CycA2 = biological target: T21, CDK1_CycA2 (Homo sapiens, UniProt P06493); assay: Radiometric protein kinase assay (33PanQinase), CDK1_CycA2; assay type: biochemical
T21 construct: purchased Reaction Biology

CDK10_CycQ = CDK10_CycQ (Homo sapiens, UniProt Q15131); assay: Radiometric protein kinase assay (33PanQinase), CDK10_CycQ; assay type: biochemical
CDK4_CycD1 = biological target: T22, CDK4_CycD1 (Homo sapiens, UniProt P11802); assay: Radiometric protein kinase assay (33PanQinase), CDK4_CycD1; assay type: biochemical
T22 construct: purchased Reaction Biology

CDK2_CycA2 = biological target: T23, CDK2_CycA2 (Homo sapiens, UniProt P24941); assay: Radiometric protein kinase assay (33PanQinase), CDK2_CycA2; assay type: biochemical
T23 construct: purchased Reaction Biology

CDK7_CycH_MAT1 = biological target: T24, CDK7_CycH_MAT1 (Homo sapiens, UniProt P50613); assay: Radiometric protein kinase assay (33PanQinase), CDK7_CycH_MAT1; assay type: biochemical
T24 construct: purchased Reaction Biology

CDK5_p25NCK = biological target: T25, CDK5_p25NCK (Homo sapiens, UniProt Q00535); assay: Radiometric protein kinase assay (33PanQinase), CDK5_p25NCK; assay type: biochemical; conditions: slope of the IC50 fit
T25 construct: purchased Reaction Biology

CDK17_p35NCK = CDK17_p35NCK (Homo sapiens, UniProt Q00537); assay: Radiometric protein kinase assay (33PanQinase), CDK17_p35NCK; assay type: biochemical
[1] = highest assay concentration 1.00E-05 M, read-out: IC50
[2] = highest assay concentration 1.00E-05 M

T17 sequence (Q00535 whole entry): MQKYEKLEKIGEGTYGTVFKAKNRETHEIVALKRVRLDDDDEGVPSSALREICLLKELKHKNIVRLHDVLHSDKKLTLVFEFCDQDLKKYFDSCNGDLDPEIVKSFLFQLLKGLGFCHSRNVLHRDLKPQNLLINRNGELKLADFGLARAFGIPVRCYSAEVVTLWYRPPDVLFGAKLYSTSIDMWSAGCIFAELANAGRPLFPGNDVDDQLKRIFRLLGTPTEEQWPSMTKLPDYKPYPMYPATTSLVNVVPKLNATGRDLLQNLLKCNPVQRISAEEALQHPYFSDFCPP
T17 sequence (Q15078 whole entry partner): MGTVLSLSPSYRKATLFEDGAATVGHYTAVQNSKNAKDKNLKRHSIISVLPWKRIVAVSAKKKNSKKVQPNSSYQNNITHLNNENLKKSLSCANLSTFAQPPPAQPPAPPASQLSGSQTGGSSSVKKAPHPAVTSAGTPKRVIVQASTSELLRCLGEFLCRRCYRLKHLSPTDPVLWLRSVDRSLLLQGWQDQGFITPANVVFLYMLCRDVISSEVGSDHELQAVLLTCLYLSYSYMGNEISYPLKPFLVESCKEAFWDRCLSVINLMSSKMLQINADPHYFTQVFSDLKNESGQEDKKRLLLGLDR
T12 sequence (Q96Q40 whole entry): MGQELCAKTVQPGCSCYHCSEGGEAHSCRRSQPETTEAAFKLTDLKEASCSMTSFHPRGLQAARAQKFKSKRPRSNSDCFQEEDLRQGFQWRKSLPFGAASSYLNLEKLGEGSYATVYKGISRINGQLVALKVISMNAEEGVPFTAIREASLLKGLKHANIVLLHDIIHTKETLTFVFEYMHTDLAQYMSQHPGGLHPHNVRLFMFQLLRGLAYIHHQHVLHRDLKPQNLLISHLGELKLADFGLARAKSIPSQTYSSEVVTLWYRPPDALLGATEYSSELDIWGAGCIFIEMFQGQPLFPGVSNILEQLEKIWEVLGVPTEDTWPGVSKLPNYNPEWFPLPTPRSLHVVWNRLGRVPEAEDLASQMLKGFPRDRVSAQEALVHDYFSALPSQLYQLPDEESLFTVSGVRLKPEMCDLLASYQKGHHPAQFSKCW
T24 sequence (P50613 whole entry): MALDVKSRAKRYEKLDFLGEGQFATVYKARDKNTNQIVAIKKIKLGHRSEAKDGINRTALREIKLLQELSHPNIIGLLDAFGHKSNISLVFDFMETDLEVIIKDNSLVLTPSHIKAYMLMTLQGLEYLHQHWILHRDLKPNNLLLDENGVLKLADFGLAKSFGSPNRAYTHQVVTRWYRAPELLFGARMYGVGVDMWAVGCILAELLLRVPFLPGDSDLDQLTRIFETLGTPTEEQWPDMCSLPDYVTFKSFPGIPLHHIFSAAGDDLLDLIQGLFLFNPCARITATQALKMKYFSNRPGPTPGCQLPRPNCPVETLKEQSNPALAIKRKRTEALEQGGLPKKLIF
T24 sequence (P51946 whole entry partner): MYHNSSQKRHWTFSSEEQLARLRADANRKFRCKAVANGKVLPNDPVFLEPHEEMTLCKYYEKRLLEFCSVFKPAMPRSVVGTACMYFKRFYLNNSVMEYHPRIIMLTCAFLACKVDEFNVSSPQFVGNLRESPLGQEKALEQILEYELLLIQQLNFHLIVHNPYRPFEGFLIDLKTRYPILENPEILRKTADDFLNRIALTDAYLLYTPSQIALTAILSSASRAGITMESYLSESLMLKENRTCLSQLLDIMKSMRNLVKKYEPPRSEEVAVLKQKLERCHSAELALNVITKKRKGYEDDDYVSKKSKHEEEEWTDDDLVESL
T24 sequence (P51948 whole entry partner): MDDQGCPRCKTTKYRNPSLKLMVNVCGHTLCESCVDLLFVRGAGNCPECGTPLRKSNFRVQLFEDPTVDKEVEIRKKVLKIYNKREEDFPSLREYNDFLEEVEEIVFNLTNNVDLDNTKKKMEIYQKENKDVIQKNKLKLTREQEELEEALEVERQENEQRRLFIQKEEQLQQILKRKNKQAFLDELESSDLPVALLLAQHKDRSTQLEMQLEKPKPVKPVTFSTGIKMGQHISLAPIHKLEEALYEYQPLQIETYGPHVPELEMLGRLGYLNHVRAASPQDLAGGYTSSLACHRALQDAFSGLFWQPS
T19 sequence (Q00534 whole entry): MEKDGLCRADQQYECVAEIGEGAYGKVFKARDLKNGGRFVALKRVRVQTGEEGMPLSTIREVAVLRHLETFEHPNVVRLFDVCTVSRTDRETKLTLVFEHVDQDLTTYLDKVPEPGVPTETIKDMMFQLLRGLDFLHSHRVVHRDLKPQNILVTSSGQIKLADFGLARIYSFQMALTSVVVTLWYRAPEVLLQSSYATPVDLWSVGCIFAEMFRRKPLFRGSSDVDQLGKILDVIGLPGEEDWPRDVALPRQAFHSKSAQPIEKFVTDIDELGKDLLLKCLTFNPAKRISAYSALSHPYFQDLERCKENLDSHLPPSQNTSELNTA
T19 sequence (P30281 whole entry partner): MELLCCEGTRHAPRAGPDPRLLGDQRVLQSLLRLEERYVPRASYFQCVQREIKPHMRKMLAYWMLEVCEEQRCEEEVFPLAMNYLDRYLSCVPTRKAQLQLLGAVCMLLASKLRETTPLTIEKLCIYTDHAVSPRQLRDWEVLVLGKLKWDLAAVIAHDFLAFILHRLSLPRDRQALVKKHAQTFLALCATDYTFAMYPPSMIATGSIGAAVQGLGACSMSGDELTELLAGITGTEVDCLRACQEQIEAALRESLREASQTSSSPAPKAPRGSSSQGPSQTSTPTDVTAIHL
T15 sequence (Q00534 whole entry): as the sequence (Q00534 whole entry) above
T15 sequence (P30279 whole entry partner): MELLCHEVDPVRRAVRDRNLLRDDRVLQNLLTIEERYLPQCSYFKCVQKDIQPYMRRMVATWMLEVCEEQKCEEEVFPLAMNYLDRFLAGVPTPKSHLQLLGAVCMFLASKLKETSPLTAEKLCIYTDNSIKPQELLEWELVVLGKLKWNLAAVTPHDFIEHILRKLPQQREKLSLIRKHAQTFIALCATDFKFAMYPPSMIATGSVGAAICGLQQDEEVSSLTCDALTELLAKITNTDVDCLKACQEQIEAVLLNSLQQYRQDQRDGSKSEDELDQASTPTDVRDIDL
Chain of CDK18_CycY (Q07002 whole entry): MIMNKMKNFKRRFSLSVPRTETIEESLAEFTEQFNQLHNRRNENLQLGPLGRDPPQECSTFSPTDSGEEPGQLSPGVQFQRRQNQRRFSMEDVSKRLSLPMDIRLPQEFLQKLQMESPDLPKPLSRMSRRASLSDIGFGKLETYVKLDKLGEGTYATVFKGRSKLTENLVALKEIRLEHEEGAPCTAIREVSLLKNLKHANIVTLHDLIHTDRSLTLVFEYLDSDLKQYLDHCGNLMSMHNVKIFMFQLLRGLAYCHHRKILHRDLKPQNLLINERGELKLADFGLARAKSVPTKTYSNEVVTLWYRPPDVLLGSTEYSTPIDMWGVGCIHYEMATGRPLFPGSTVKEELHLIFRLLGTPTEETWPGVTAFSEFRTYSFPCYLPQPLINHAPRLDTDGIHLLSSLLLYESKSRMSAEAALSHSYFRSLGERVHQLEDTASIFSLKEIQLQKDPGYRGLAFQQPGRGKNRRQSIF
Chain of CDK18_CycY (Q8ND76 whole entry partner): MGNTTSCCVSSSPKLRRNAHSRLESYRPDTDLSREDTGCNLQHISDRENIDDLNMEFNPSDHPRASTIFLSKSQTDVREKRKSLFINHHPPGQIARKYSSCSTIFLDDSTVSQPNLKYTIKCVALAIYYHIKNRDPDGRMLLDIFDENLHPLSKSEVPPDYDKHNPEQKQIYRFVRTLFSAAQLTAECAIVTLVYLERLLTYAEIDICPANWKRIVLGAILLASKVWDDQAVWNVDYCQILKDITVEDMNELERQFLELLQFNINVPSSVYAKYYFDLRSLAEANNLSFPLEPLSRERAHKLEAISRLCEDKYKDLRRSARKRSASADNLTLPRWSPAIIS
Chain of CDK10_CycQ (Q15131 whole entry): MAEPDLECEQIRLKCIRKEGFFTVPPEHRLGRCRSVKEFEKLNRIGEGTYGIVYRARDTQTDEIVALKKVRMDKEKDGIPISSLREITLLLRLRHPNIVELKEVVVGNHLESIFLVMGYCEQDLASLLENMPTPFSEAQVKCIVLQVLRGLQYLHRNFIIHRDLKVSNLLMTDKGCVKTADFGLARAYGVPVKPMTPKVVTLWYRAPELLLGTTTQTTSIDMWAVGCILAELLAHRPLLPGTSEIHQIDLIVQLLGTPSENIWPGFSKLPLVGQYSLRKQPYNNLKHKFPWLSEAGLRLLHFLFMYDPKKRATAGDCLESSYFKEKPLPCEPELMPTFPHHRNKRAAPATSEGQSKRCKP
Chain of CDK10_CycQ (Q8N1B3 whole entry partner): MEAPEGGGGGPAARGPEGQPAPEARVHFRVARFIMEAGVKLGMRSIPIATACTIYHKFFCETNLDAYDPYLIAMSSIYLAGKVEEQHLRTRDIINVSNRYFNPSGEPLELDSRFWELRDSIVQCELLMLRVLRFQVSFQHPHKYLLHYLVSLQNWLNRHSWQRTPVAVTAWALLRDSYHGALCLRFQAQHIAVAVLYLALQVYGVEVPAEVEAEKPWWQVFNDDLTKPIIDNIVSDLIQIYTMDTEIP
Chain of CDK20_CycH (Q8IZL9 whole entry): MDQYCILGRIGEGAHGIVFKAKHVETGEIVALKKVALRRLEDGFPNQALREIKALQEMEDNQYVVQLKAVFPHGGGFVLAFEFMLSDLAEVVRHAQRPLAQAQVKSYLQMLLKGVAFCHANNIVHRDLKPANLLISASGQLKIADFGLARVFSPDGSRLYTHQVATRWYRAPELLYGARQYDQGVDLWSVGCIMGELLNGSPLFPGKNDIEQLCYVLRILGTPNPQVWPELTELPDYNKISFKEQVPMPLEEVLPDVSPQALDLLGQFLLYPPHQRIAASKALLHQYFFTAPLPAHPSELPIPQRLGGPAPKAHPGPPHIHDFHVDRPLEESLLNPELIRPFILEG
Chain of CDK20_CycT1 (Q8IZL9 whole entry): as above

Cn1ncc2cc(-c3cnc(N)c(Cl)c3N3CCC4(CCNC4=O)CC3)ccc21 [CCT251921]
Hill Slope (CDK6_CycD1): -0.13 | IC50 (CDK1_CycE1; [1]): > 10 µM | Hill Slope (CDK1_CycE1; slope of the IC50 fit): -0.77 | Hill Slope (CDK8_CycC): -0.55 | IC50 (CDK12_CycK; [2]): > 10 µM | Hill Slope (CDK12_CycK; slope of the IC50 fit): -0.32 | IC50 (CDK16_CycY; [2]): > 10 µM | Hill Slope (CDK16_CycY; slope of the IC50 fit): -0.3 | IC50 (CDK3_CycC): > 10 µM | Hill Slope (CDK3_CycC; slope of the IC50 fit): -0.55 | IC50 (CDK18_CycY; [2]): > 10 µM | Hill Slope (CDK18_CycY; slope of the IC50 fit): -0.84 | IC50 (CDK9_CycK; [2]): > 10 µM | Hill Slope (CDK9_CycK; slope of the IC50 fit): -0.77 | IC50 (CDK8): 0.0049 µM | Hill Slope (CDK3_CycE1): -0.12 | Hill Slope (CDK13_CycK): 0.03 | IC50 (CDK4_CycD3; [2]): > 10 µM | Hill Slope (CDK4_CycD3; slope of the IC50 fit): -0.37 | IC50 (CDK1_CycB1; [2]): > 10 µM | Hill Slope (CDK1_CycB1; slope of the IC50 fit): -0.32 | IC50 (CDK15_CycA2; [2]): > 10 µM | Hill Slope (CDK15_CycA2; slope of the IC50 fit): -0.85 | IC50 (CDK20_CycH; [2]): > 10 µM | Hill Slope (CDK20_CycH; slope of the IC50 fit): -0.38 | Hill Slope (CDK2_CycD1): 0 | IC50 (CDK19_CycC): 0.409 µM | Hill Slope (CDK19_CycC; slope of the IC50 fit): -0.45 | IC50 (CDK6_CycD2; [2]): > 10 µM | Hill Slope (CDK6_CycD2; slope of the IC50 fit): -0.59 | IC50 (CDK11B 357-795_CycK; [2]): > 10 µM | Hill Slope (CDK11B 357-795_CycK; slope of the IC50 fit): -0.41 | IC50 (CDK9_CycT1; [2]): > 10 µM | Hill Slope (CDK9_CycT1; slope of the IC50 fit): -1.01 | IC50 (CDK20_CycT1; [2]): > 10 µM | Hill Slope (CDK20_CycT1; slope of the IC50 fit): -0.33 | IC50 (CDK14_CycY; [2]): > 10 µM | Hill Slope (CDK14_CycY; slope of the IC50 fit): -0.73 | IC50 (CDK5_p35NCK; [2]): > 10 µM | Hill Slope (CDK5_p35NCK; slope of the IC50 fit): -0.4 | IC50 (CDK2_CycE1; [1]): > 10 µM | Hill Slope (CDK2_CycE1; slope of the IC50 fit): -0.94 | IC50 (CDK6_CycD3; [2]): > 10 µM | Hill Slope (CDK6_CycD3; slope of the IC50 fit): -0.33 | IC50 (CDK4_CycD2; [2]): > 10 µM | Hill Slope (CDK4_CycD2; slope of the IC50 fit): -0.33 | IC50 (CDK1_CycA2; [1]): > 10 µM | Hill Slope (CDK1_CycA2; slope of the IC50 fit): -0.53 | IC50 (CDK10_CycQ; [2]): > 10 µM | Hill Slope (CDK10_CycQ; slope of the IC50 fit): -0.72 | IC50 (CDK4_CycD1; [2]): > 10 µM | Hill Slope (CDK4_CycD1; slope of the IC50 fit): -0.37 | IC50 (CDK2_CycA2; [1]): > 10 µM | Hill Slope (CDK2_CycA2; slope of the IC50 fit): -0.89 | IC50 (CDK7_CycH_MAT1; [2]): > 10 µM | Hill Slope (CDK7_CycH_MAT1; slope of the IC50 fit): -0.33 | Hill Slope (CDK5_p25NCK): -0.17 | IC50 (CDK17_p35NCK; [2]): > 10 µM | Hill Slope (CDK17_p35NCK; slope of the IC50 fit): -0.39
